row,SMILES,melting point
1,ClC(c1ccccc1)c1cccnn1 (stereo not given),110 to 112 °C
2,N#Cc1ncn2c(C(F)(F)F)cc(-c3ccccc3Cl)nc12,180 °C
3,COc1cc2c(cc1OC)C1CC(=O)C3CCCC3N1CC2 (stereo not given),105 to 114 °C
4,CC(=O)NCc1ccc(CN2CCN(c3ncc(Br)s3)CC2)cc1,160 to 163 °C
5,CCNc1nc(N)nc2c1ncn2C1C=CC(CO)C1 (stereo not given),171 to 173 °C
6,FC(F)(F)c1cccc(CCc2nnc(-c3ccnc4[nH]ccc34)o2)c1,176 to 177 °C
7,CC(=NNC(=N)N)c1sc(-c2ccccc2)nc1C,195 to 196 °C
8,COC(=O)c1ccccc1C(=O)c1ccc(N2CCC(N3C(=O)OCc4ccc(Cl)cc43)CC2)c([N+](=O)[O-])c1,90 to 92 °C
9,CCNC(=O)Oc1cccc(CCNC(=O)/C=C/c2cccnc2)c1,130 °C
10,O=C1[C@H]2CCC[C@H]2Nc2ccccc2N1Cc1ccc2ccccc2c1 (relative stereo),148 °C
11,CC(=O)c1c(-c2cccc([N+](=O)[O-])c2)cc(C(=O)NCCN2CCOCC2)nc1C,107 to 110 °C
12,CC(C)(C(=O)c1ccc(Cl)cc1)n1ncn(-c2ccc(N3CCN(Cc4ccccc4)CC3)cc2)c1=O,150 °C
13,NC(=O)c1ccc(F)c2c1OCC=C2,152 to 154 °C
14,C=CCO[C@@H]1CC(C(=O)O)=C[C@@H](OC(C)C)[C@@H]1NC(C)=O,70 to 71 °C
15,CCCCCCC(=O)c1ccc(OCCN2CCN(c3cc(Cl)nnc3Cl)CC2)cc1,113 to 115 °C
16,O=C(O)CSCCCCCn1nc(-c2ccccc2)c(-c2ccccc2)c1-c1ccccc1,140 to 142 °C
17,CC(=O)NCCCCCNc1ccc(NCCN(C)C)c2c1C(=O)c1ccccc1C2=O,138 to 139 °C
18,COc1ccc2nccc(C(=O)CC[C@@H]3CCN(CC#Cc4cc(F)cc(F)c4F)C[C@@H]3C(=O)O)c2c1,70 °C
19,O=Cc1cc(-c2ccccc2)c2ccc3c(-c4ccccc4)cc(C=O)nc3c2n1,165 to 170 °C
20,O=c1[nH]c2ncc(-c3cccc(-c4nc[nH]n4)c3)nc2n1CC1CCCCC1,305 to 307 °C
21,O=C(NC12CC3CC(CC1C3)C2)c1ccccc1C(c1ccc(O)cc1)c1ccc(O)cc1,219 to 224 °C
22,Cc1nnc(S(=O)c2c(C)cccc2C)o1 (stereo not given),79 to 80 °C
23,COc1ccc(C(=NO)c2cc(F)ccc2F)c(O)c1Cl,209 to 210 °C
24,CN1CCCC1=Cc1ccc(Cl)cc1,63 °C
25,CC(O)c1ccc(-c2ccc(N)cc2)o1 (stereo not given),100 to 104 °C

row,SMILES,melting point
1,COc1cc(OCc2ccccc2)cc(Cl)c1Cl,79 to 81 °C
2,CCCN1CCC23c4cccc(O)c4OC2C2CCC3(C1)C(CSC)C2 (stereo not given),152 to 153 °C
3,O=S(=O)(NCc1ccccc1)c1ccc(N(OCC2CCCCC2)c2ncc3[nH]cnc3n2)cc1,222 to 224 °C
4,O=C1c2ccccc2C(=O)N1Nc1ccc(/C=C/C(c2cc(Cl)c(Cl)c(Cl)c2)C(F)(F)F)cc1 (stereo not given),187 to 189 °C
5,Cc1oc2nc(C(=O)O)nc(OCCN(C)C)c2c1C,179 to 180 °C
6,CC(C)C1(C)N=C(c2nc3ccc(OC(F)F)cc3cc2C(=O)O)NC1=O (stereo not given),208 to 209 °C
7,CCC(Cc1c(I)cc(I)c(NC(=O)CNCCNCCN)c1I)C(=O)O (stereo not given),185 °C
8,CCOC1=N[C@@H](C(C)C)C(=O)N[C@]1(C)Cc1ccccc1,125 °C
9,COc1ccc(C(C)CN2C=CC=C3C2=Nc2cc(OC)ccc2S(=O)(=O)N3C)cc1 (stereo not given),128 to 131 °C
10,CCOC(=O)C1=C(C)NC(=O)N(CCCN(C)Cc2ccccc2)C1c1cccc(Cl)c1Cl (stereo not given),154 to 156 °C
11,Cc1nc2ccc(OC(F)(F)F)cc2[nH]1,135 to 137 °C
12,COC(=O)c1ccc(-c2nc(Nc3cc(OC)c(OC)c(OC)c3)ncc2C#N)cc1,206 to 208 °C
13,Cc1nn(C)c2nc(N(CC(C)C)CC3CC3)c(CN(Cc3cc(C(F)(F)F)cc(C(F)(F)F)c3)c3nnn(C)n3)cc12,99 to 101 °C
14,CCCCn1cnnc1SCC(=O)c1ccc(OC)cc1,79 to 82 °C
15,CCOC(=O)c1c(C)nc(-c2ccccc2)nc1-c1cc([N+](=O)[O-])ccc1SC,125 to 126 °C
16,CCNC(=O)c1ccc(-c2ccc3nnn(C(C)(C)c4ccc5ncccc5c4)c3n2)cc1F,132 to 135 °C
17,O=c1[nH]c2ccc(-c3cccc([N+](=O)[O-])c3)cc2s1,276 to 277 °C
18,CC(=O)NC1CCN(Cc2ccccc2)C1 (stereo not given),83 to 85 °C
19,O=C(COC1CCCCCCCCCCC1)C1=C(O)CSC1=O,93 to 95 °C
20,NNC(=O)C[C@H](O)c1ccccc1,180 °C
21,Cc1sc2ccc(Cl)cc2c1C1=NCCN1,190 to 192 °C
22,Nc1nc(-c2ccco2)c(C(=O)C2CCOCC2)s1,184 to 188 °C
23,COC[C@H]1CN(c2ccc([C@H]3CC[C@H](OCC#N)CC3)cc2)C(=O)O1,43 to 45 °C
24,COC1CC2(C)C(CCC3C4CCC(C(=O)COC(C)=O)C4(C)CC(=O)C32)CC1O (stereo not given),177 to 180 °C
25,COc1ccc2cc([C@H](C)C(=O)OC[C@@H]3NC(=O)[C@@H](C(C)(C)S)NC3=O)ccc2c1,> 180 °C

row,SMILES,melting point
1,Cc1[nH]c(=O)n(-c2cc(OC(C)C)c(Cl)cc2F)c(=O)c1F,162 to 164 °C
2,CCCCCCCCCCCCC(=O)c1cn(CCCC(=O)O)c2ccccc12,76 to 78 °C
3,CC(C)(CF)C(O)(COc1ccc(F)cc1)Cn1cncn1 (stereo not given),97 to 99 °C
4,O=C1C(=Cc2ccco2)CCc2cc(OCCn3ccnc3)ccc21,109 to 110 °C
5,COc1ccc(-n2c3ccccc3c3cc(C=C(C#N)c4cc(F)cc(F)c4)ccc32)cc1,200 to 203 °C
6,CC(=S)NC[C@H]1CN(c2ccc3c(c2)OC[C@@H](C)N3)C(=O)O1,74 to 77 °C
7,CC12CCC3C4CCC(=O)C=C4CCC3C1CCC2=O (stereo not given),163 to 169 °C
8,Cc1nc(Nc2ccccc2)sc1C(=O)c1sc(Nc2ccccc2)nc1C,194 to 196 °C
9,O=C(OC1COC(OC(=O)C2CCCCC2)CO1)C1CCCCC1 (stereo not given),156 to 158 °C
10,O=C1OCCC1n1nc(-c2c(-c3ccccc3)nn3ccccc23)ccc1=O (stereo not given),179 to 180 °C
11,COC(=O)c1cc(C(C)OC(C)C)c(C(F)(F)F)cc1N (stereo not given),87 to 90 °C
12,Cc1cc(C2CCN(S(=O)(=O)C3(C(=O)NO)CCN(C(=O)OC(C)(C)C)CC3)CC2)ccc1-c1cccc(OCCO)n1,180 to 181 °C
13,CN1CCCC1CCNc1nccc(Oc2ccc(NC(=O)c3cc(F)cc(N4CCCCC4)c3)c3ccccc23)n1 (stereo not given),112 to 114 °C
14,O=S(=O)(CCCl)CCC(F)(F)C(F)(F)C(F)(F)C(F)(F)C(F)(F)C(F)(F)F,104 to 106 °C
15,CCOC(=O)c1ccc(OCc2ccc(F)cc2)cc1,60 to 62 °C
16,CC(=O)C1=CCC2C3CCC4CC=CCC4(C)C3CCC12C (stereo not given),143 to 145 °C
17,CCCn1c(=O)c2[nH]c(-c3ccc4c(c3)OCCO4)nc2n(Cc2ccccc2)c1=O,290 °C
18,N#Cc1cnc2cc3c(cc2c1Nc1ccc(Oc2ccccc2)cc1)ncn3CCN1CCOCC1,> 260 °C
19,c1cc2c(c(OCC3CO3)c1)CC1OC1C2 (stereo not given),85 to 87 °C
20,CC(C)[C@H](N)C(=O)NC(=O)N(CCCl)N=O,115 to 117 °C
21,NC(=O)c1ccc(CCN2CCC(=C3c4ccsc4CCn4ccnc43)CC2)cc1,196 °C
22,c1c(N2CCC3(CC2)OCCO3)nc(N2CCNCC2)nc1N1CCC2(CC1)OCCO2,122 to 126 °C
23,CCn1cc2c(n1)c(=O)[nH]c1ccccc12,> 250 °C
24,OCCCc1oc(-n2cncn2)nc1-c1ccc(Cl)cc1,139 to 140 °C
25,CCCCC(=N)NC(=O)Nc1cccc(Cl)c1,135 to 137 °C

row,SMILES,melting point
1,CCCCc1oc2ccccc2c1C(=O)NCC(=O)c1ccc2cc(OC)ccc2c1,129 to 131 °C
2,C1=C(c2ccc3[nH]ccc3c2)CCN(Cc2c[nH]c3ncccc23)C1,187 to 189 °C
3,Cc1cc(Cl)ccc1Cn1nc(C(C)(C)O)c2ccccc21,72 to 74 °C
4,Nc1ccc(Sc2ccccn2)cn1,121 °C
5,O=C1NC(=O)C(c2ccc3c(c2)CCCC3)S1 (stereo not given),157 to 158 °C
6,O=C(O)c1ccc(-c2cnc3c(c2)N(Cc2cc(F)ccc2F)CCN3)cc1,> 300 °C
7,N=C(Nc1ccccc1)Nc1nc(-c2ccccc2)cs1,179 to 180 °C
8,CSc1nc2cc(Cl)c(Cl)cc2n1C1OC(CO)C(O)C1O (stereo not given),204 to 206 °C
9,O=C(Cc1ccncc1)NC(Cc1csc2ccccc12)C(=O)CCc1cc(C(F)(F)F)cc(C(F)(F)F)c1 (stereo not given),184 to 187 °C
10,CN(CC#N)Cc1nc(-c2cc(C(C)(C)C)c(O)c(C(C)(C)C)c2)cs1,150 to 156 °C
11,CC(C)(C)OC(=O)Nc1cc(OC(C)(C)C)c(-c2ccc(F)cc2)cc1N,139 °C
12,CS(=O)(=O)c1ccc(C(CC2CCCC2)C(=O)Nc2nc(CO)cs2)cc1 (stereo not given),124 to 126 °C
13,COc1ccc2c3ccc(OC)cc3n(CCNC(=O)CS(C)(=O)=O)c2c1,175 to 177 °C
14,CCOC(=O)[C@H](CCc1ccccc1)N[C@@H](C)C(=O)N1N=C(C(C)(C)C)S[C@H]1C(=O)O,165 to 168 °C
15,O=c1[nH]c2cccc(F)c2c(=O)n1CCCN1CC=C(c2ccc(Cl)cc2)CC1,201 to 202 °C
16,CC1=C(c2ccncc2)SC(c2ccco2)C(=O)N1 (stereo not given),178 to 180 °C
17,CNC(=O)[C@@H]1C[C@H](SCc2ccc(OC)cc2)CN1CCO,88 to 89.5 °C
18,CCCN1C(=O)N2C[C@@H](Cc3ccccc3)N=C2c2c1nc(Br)n2Cc1ccccc1,200 to 206 °C
19,CCCN(C1CC(C)(C)Oc2ccc(OCCOC)cc21)S(=O)(=O)CC (stereo not given),78 to 80 °C
20,O=C(CC1c2ccccc2Sc2ccccc21)Nc1ccc(C(=O)O)cc1,265 to 266 °C
21,CNC(=O)Nc1ccc(C2=NNC(=O)CC2C)cn1 (stereo not given),257 to 259 °C
22,Cc1c(-c2cncn2C)[nH]c(=O)c2c1ccc1nc(Nc3c(Cl)cccc3Cl)n(C)c12,> 300 °C
23,CN(Cc1ccccc1)Cc1nc(-c2ccc(-c3ccccc3)cc2)c[nH]1,106 to 108 °C
24,O=C1C2C3CCC(C4CC43)C2C(=O)N1c1cc(Cl)cc(Cl)c1 (stereo not given),145 to 153 °C
25,CC(=O)OCc1ccc(N(c2ccccc2)c2ccccc2)cc1,86 to 89 °C

# From a melting point compilation (Tetko et al.; mined from patent text by program, amines drawn as free bases though some values may be those of a salt)
